Columns and labels:
[1] = test system: SRS-A induced contraction of guinea pig ileum; test: Guinea pig ileum: inhibition of SRS-A induced contraction (isolated tissue); assay type: cell-based; conditions: Cavia porcellus, atropine and chlorpheniramine (1×10^-5 M) present, test drug 5 min before SRS-A, read-out: G.P. Ileum IC50
Procedure: The tissue is exposed to […] histamine at 1-3 minute intervals until a reproducible response is obtained. Atropine (1×10^-5 M) and chloropheniramine (1×10^-5 M) are added followed by 1-2 biological units of SRS-A. After washing the tissue, the response to BaCl2 (1×10^-3 M) was also noted.

[2] = test system: contraction of guinea pig parenchymal tissue by immunological release of SRS-A; test: Guinea pig parenchymal strip: inhibition of contraction by immunological release of SRS-A (isolated tissue); assay type: cell-based; conditions: Cavia porcellus; egg albumin challenge of sensitized tissue; chlorpheniramine (10^-5 M), indomethacin (10^-4 M); test compound 30 min before challenge
Procedure: (b) Guinea Pig Parenchymal Strip
The guinea pigs were sacrificed and lungs removed. Strips of subpleural parenchyma were prepared from the left and right diaphragmatic lobes and suspended in a tissue bath under 1 gram of tension. After a one hour equilibration period, a dose response to histamine (10^-7 to 10^-4 M) induced contractions was performed to determine maximal contraction. The tissues were then washed and allowed to relax to baseline. Chlorpheniramine (10^-5 M), indomethacin (10^-4 M) and test compound were added 30 minutes prior to challenge with egg albumin. The response to antigen was measured in milligrams of tension.

| Compound | IC50 [1] | IC50 [2] |
| --- | --- | --- |
| CCCCCCCCCCC[C@@H](SCCC(=O)OC)[C@@H](O)CCCCC(=O)OC (relative stereo) [Example 4, Erythro Methyl 6-Hydroxy-7-{[2-(methoxycarbonyl)ethyl]thio}octadecanoate] |  | 1.1 µM |
| CCCCCCCCCCCC(SC[C@H](N)C(=O)OC)C(O)CCCCC(=O)OC (stereo partly drawn) [Example 3, Threo S-(5-Hydroxy-1-methoxycarbonyl-6-heptadecyl)-L-cysteine Methyl Ester] | 14 µM | > 100 µM |

Further lines, with some results ahead:

| IC50 [1] | Compound | IC50 [2] |
| --- | --- | --- |
| 1 µM | CCCCCCCCCCC[C@@H](SCCC(=O)OC)[C@H](O)CCCCC(=O)OC (relative stereo) [Example 1, Threo Methyl 6-Hydroxy-7{[2-(methoxycarbonyl)ethyl]thio}octadecanoate] | > 100 µM |
| 9 µM | CCCCCCCCCCC[C@@H](SCCC(=O)O)[C@H](O)CCCCC(=O)O (relative stereo) [Example 2, Threo 7-(2-Carboxyethyl)thio-6-hydroxyoctadecanoic Acid] | 100 µM |
| 0.08 µM | CCCCCCCCCCC[C@@H](SCCC(=O)O)[C@@H](O)CCCCC(=O)O (relative stereo) [Example 5, Erythro 7-(2-Carboxyethyl)thio-6-hydroxyoctadecanoic Acid] | 3.6 µM |

From US4469705A, “Saturated leukotriene derivatives as antiallergens” (McNeilab, Inc., priority 1982, dated 1984)
